4 molecules from ChEMBL document CHEMBL1150546, “Adenosine dialdehyde analogs I: Regioselective synthesis of adenosine monoaldehydes” (Bioorg Med Chem Lett, 1996) can be followed below.

The test system of one assay is L929. Description: cells. Conditions: Mus musculus.
Another assay relates to Vero. Description: cells. The conditions noted are these: Chlorocebus sabaeus.
The target in assay [1] is T1, Adenosylhomocysteinase (Homo sapiens, UniProt P23526). The experiment in a line: Percentage inhibition of S-adenosyl homocysteine (SAH) hydrolase by the compound at a concentration of 10 uM.
Target sequence in this assay (P23526 2-432 limits assumed): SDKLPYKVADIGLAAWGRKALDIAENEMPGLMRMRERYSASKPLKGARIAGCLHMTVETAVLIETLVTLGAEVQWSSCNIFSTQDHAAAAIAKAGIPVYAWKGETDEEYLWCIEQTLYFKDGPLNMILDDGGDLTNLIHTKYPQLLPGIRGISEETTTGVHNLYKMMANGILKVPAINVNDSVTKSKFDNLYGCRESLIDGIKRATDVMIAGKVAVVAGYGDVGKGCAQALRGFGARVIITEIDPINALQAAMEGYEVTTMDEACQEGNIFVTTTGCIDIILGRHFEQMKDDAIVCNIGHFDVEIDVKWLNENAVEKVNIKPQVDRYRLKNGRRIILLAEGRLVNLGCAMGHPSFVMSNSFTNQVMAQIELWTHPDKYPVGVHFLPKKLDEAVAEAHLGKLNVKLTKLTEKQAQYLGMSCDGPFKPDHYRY
For assay [2], the target named is T1, Adenosylhomocysteinase. The experiment in a line: Compound was tested for competitive inhibition against S-adenosyl homocysteine (SAH) hydrolase.
Target sequence in this assay (P23526 whole entry): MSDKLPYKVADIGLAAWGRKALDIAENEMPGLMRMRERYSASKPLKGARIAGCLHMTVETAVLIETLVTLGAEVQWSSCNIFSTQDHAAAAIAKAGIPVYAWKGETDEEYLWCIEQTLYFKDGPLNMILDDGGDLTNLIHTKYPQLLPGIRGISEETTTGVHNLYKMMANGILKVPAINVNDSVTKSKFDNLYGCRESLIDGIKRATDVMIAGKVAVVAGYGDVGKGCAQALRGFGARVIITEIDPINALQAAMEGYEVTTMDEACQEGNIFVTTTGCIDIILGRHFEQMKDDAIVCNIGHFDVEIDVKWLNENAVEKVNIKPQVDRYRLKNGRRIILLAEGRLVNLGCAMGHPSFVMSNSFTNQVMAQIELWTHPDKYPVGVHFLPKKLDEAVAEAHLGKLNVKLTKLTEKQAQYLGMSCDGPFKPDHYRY
For assay [3], the target named is T1, Adenosylhomocysteinase. The experiment in a line: Compound was tested for inhibition of S-adenosyl homocysteine (SAH) hydrolase.
Target sequence in this assay (P23526 whole entry): as above

Each structure is given as a SMILES string. Values after ≈ are worked out from the molar mass of the structure shown.

As to `Nc1ncnc2c1ncn2[C@@H](CO)O[C@@H](C=O)CO`, the results for the IC50 with L929 and in the assay with Vero were 1.9 µg/mL (≈ 7.11 µM) and 0.41 µg/mL (≈ 1.53 µM), respectively. In addition, on Adenosylhomocysteinase [1], the inhibition is 89%. The molecule further gave an inhibition constant Ki on Adenosylhomocysteinase [2] of 1900 nM.

In turn, `Nc1ncnc2c1ncn2C(C=O)OC(C=O)CO` (stereo unspecified) registered a Ki at Adenosylhomocysteinase [3] of 3.3 nM. Also, the results for the IC50 in the assay with L929 and with Vero were 3.1 µg/mL (≈ 11.7 µM) and 0.41 µg/mL (≈ 1.55 µM), respectively.

Take `Nc1ncnc2c1ncn2[C@@H](C=O)OC(CO)CO`: the inhibition against Adenosylhomocysteinase [1] was 4%.

`C=C(C=O)OC(C=O)n1cnc2c(N)ncnc21` (stereo unspecified) came in with an inhibitory constant (Ki) on Adenosylhomocysteinase [3] of 0.5 nM. The results for the IC50 in the assay on L929 and with Vero were 8.9 µg/mL (≈ 36 µM) and 11.5 µg/mL (≈ 46.5 µM), respectively.
